# Test results published in patent US8436043B2 (Takeda Pharmaceutical Company Limited, priority 2008, dated 2013).
# Target: T1, human glucagon receptor (Homo sapiens, UniProt P47871)
# T1 construct: made in house; host or cells: FreeStyle CHO cells, transient transfection with pMSRαneo/hGCGR; membrane fraction (35,000 rpm pellet)
# Test: Glucagon binding inhibitory activity ([125I]-glucagon binding to glucagon receptor membrane protein)
# Details: test compound 10 μM; 0.4% DMSO = 0%, non-labeled glucagon 1 μM = 100%
# How it was run: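 Receptor source was a membrane fraction of transiently transfected CHO cells bearing human receptor; 90 min room-temperature binding, filtration harvest, scintillation counting.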
# T1 sequence (P47871 26-477): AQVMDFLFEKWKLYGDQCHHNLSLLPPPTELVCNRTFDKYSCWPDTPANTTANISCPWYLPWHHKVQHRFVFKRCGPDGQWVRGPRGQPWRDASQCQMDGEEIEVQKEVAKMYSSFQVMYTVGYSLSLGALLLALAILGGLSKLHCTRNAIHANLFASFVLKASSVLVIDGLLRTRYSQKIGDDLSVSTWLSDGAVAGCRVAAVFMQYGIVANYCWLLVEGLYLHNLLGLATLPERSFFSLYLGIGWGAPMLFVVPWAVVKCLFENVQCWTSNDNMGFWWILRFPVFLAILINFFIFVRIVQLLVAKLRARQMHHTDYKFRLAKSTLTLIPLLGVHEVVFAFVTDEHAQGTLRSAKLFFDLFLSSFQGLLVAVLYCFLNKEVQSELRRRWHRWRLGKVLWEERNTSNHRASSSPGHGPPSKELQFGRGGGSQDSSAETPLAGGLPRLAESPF
row,inhibitory rate (%) at 10 μM [%],Compound
1,79,"Cc1c(C(Nc2ccc(C(=O)N(C)CCC(=O)O)cc2)C2CCCC2)sc2ccccc12 (stereo not drawn) [Example A65, 3-{[(4-{[cyclopentyl(3-methyl-1-benzothiophen-2-yl)methyl]amino}phenyl)carbonyl](methyl)amino}propanoic acid]"
2,89,Cc1c(C(Nc2ccc(C(=O)N(C)CCC(=O)O)cc2)C2CCCC2)oc2ccc(F)cc12 (stereo not drawn) [Example A69]
3,92,"COCCOc1ccc2oc(C(Nc3ccc(C(=O)N(C)CCC(=O)O)cc3)C3CCCCC3)c(C)c2c1 (stereo not drawn) [Example A80, 3-[{[4-({cyclohexyl[5-(2-methoxyethoxy)-3-methyl-1-benzofuran-2-yl]methyl}amino)phenyl]carbonyl}(methyl)amino]propanoic acid]"
4,89,"Cc1c(C(Nc2ccc(C(=O)N(C)CCC(=O)O)cc2)C(C)C)oc2ccc(OCc3ccccc3)cc12 (stereo not drawn) [Example A86, 3-[{[4-({1-[5-(benzyloxy)-3-methyl-1-benzofuran-2-yl]-2-methylpropyl}amino)phenyl]carbonyl}(methyl)amino]propanoic acid]"

# Same assay, conditions: test compound 10 μM; 0.4% DMSO = 0%, non-labeled glucagon 1 μM = 100%; read-out: inhibitory rate (%) at 10 μM
row,inhibition at 10 µM [%],Compound
1,84,"Cc1c(C(Nc2ccc(C(=O)N(C)CCC(=O)O)cc2)C2CCCC2)sc2ccccc12 (stereo not drawn) [Example A64, 3-{[(4-{[cyclopentyl(3-methyl-1-benzothiophen-2-yl)methyl]amino}phenyl)carbonyl](methyl)amino}propanoic acid]"
2,82,"Cc1c(C(Nc2ccc(C(=O)N(C)CCC(=O)O)cc2)C2CCCC2)oc2ccc(F)cc12 (stereo not drawn) [Example A68, 3-{[(4-{[cyclopentyl(5-fluoro-3-methyl-1-benzofuran-2-yl)methyl]amino}phenyl)carbonyl](methyl)amino}propanoic acid]"
3,79,"CCC(CC)C(Nc1ccc(C(=O)N(C)CCC(=O)O)cc1)c1oc2ccc(F)cc2c1C (stereo not drawn) [Example A72, 3-{[(4-{[2-ethyl-1-(5-fluoro-3-methyl-1-benzofuran-2-yl)butyl]amino}phenyl)carbonyl](methyl)amino}propanoic acid]"
4,73,"COCCOc1ccc2oc(C(Nc3ccc(C(=O)N(C)CCC(=O)O)cc3)C3CCCCC3)c(C)c2c1 (stereo not drawn) [Example A79, 3-[{[4-({cyclohexyl[5-(2-methoxyethoxy)-3-methyl-1-benzofuran-2-yl]methyl}amino)phenyl]carbonyl}(methyl)amino]propanoic acid]"
5,89,"Cc1c(C(Nc2ccc(C(=O)N(C)CCC(=O)O)cc2)C2CCCCC2)oc2ccc(OC3CCOCC3)cc12 (stereo not drawn) [Example A82, 3-[{[4-({cyclohexyl[3-methyl-5-(tetrahydro-2H-pyran-4-yloxy)-1-benzofuran-2-yl]methyl}amino)phenyl]carbonyl}(methyl)amino]propanoic acid]"
6,82,"Cc1c(C(Nc2ccc(C(=O)N(C)CCC(=O)O)cc2)C(C)C)oc2ccc(OCc3ccccc3)cc12 (stereo not drawn) [Example A85, 3-[{[4-({1-[5-(benzyloxy)-3-methyl-1-benzofuran-2-yl]-2-methylpropyl}amino)phenyl]carbonyl}(methyl)amino]propanoic acid]"
7,75,"Cc1c(C(Nc2ccc(C(=O)NCCC(=O)O)cc2)C2CCCCC2)oc2ccc(Cl)cc12 (stereo not drawn) [Example A88, 3-{[(4-{[(5-chloro-3-methyl-1-benzofuran-2-yl)(cyclohexyl)methyl]amino}phenyl)carbonyl]amino}propanoic acid]"
8,80,Cc1c(C(Nc2ccc(C(=O)N(C)CCC(=O)O)cc2)C2CCCCC2)oc2ccc(Cl)cc12 (stereo not drawn) [Example A89]
9,77,"Cc1ccc2oc(C(Nc3ccc(C(=O)NCCC(=O)O)cc3)C3CCCCC3)c(C)c2c1 (stereo not drawn) [Example A90, 3-{[(4-{[cyclohexyl(3,5-dimethyl-1-benzofuran-2-yl)methyl]amino}phenyl)carbonyl]amino}propanoic acid]"
10,79,"Cc1ccc2oc(C(Nc3ccc(C(=O)N(C)CCC(=O)O)cc3)C3CCCCC3)c(C)c2c1 (stereo not drawn) [Example A91, 3-{[(4-{[cyclohexyl(3,5-dimethyl-1-benzofuran-2-yl)methyl]amino}phenyl)carbonyl](methyl)amino}propanoic acid]"
11,76,"COc1ccc2oc(C(CC(C)C)Nc3ccc(C(=O)NCCC(=O)O)cc3)c(C)c2c1 (stereo not drawn) [Example A92, 3-{[(4-{[1-(5-methoxy-3-methyl-1-benzofuran-2-yl)-3-methylbutyl]amino}phenyl)carbonyl]amino}propanoic acid]"
12,70,"COc1ccc2oc(C(CC(C)C)Nc3ccc(C(=O)N(C)CCC(=O)O)cc3)c(C)c2c1 (stereo not drawn) [Example A93, 3-{[(4-{[1-(5-methoxy-3-methyl-1-benzofuran-2-yl)-3-methylbutyl]amino}phenyl)carbonyl](methyl)amino}propanoic acid]"
13,57,"Cc1c(C(COc2ccccc2)Nc2ccc(C(=O)NCCC(=O)O)cc2)oc2ccccc12 (stereo not drawn) [Example A94, 3-{[(4-{[1-(3-methyl-1-benzofuran-2-yl)-2-phenoxyethyl]amino}phenyl)carbonyl]amino}propanoic acid]"
14,76,"Cc1c(C(Nc2ccc(C(=O)NCCC(=O)O)cc2)C2CCCCC2)oc2cc(F)ccc12 (stereo not drawn) [Example A96, 3-{[(4-{[cyclohexyl(6-fluoro-3-methyl-1-benzofuran-2-yl)methyl]amino}phenyl)carbonyl]amino}propanoic acid]"
15,76,Cc1c(C(Nc2ccc(C(=O)N(C)CCC(=O)O)cc2)C2CCCCC2)oc2cc(F)ccc12 (stereo not drawn) [Example A97]
16,78,"Cc1c(C(Nc2ccc(C(=O)NCCC(=O)O)cc2)C2CCCCC2)oc2ccc(C#N)cc12 (stereo not drawn) [Example A98, 3-{[(4-{[(5-cyano-3-methyl-1-benzofuran-2-yl)(cyclohexyl)methyl]amino}phenyl)carbonyl]amino}propanoic acid]"
17,80,"Cc1c(C(Nc2ccc(C(=O)N(C)CCC(=O)O)cc2)C2CCCCC2)oc2ccc(C#N)cc12 (stereo not drawn) [Example A99, 3-{[(4-{[(5-cyano-3-methyl-1-benzofuran-2-yl)(cyclohexyl)methyl]amino}phenyl)carbonyl](methyl)amino}-propanoic acid]"
18,78,"Cc1c(C(CC(C)C)Nc2ccc(C(=O)NCCC(=O)O)cc2)oc2ccc(Cl)cc12 (stereo not drawn) [Example A100, 3-{[(4-{[1-(5-chloro-3-methyl-1-benzofuran-2-yl)-3-methylbutyl]amino}phenyl)carbonyl]amino}propanoic acid]"
19,76,"Cc1c(C(CC(C)C)Nc2ccc(C(=O)N(C)CCC(=O)O)cc2)oc2ccc(Cl)cc12 (stereo not drawn) [Example A101, 3-{[(4-{[1-(5-chloro-3-methyl-1-benzofuran-2-yl)-3-methylbutyl]amino}phenyl)carbonyl](methyl)amino}propanoic acid]"
20,68,"COc1ccc2oc(C(Nc3ccc(C(=O)NCCC(=O)O)cc3)C3CCCCC3)c(Br)c2c1 (stereo not drawn) [Example A102, 3-{[(4-{[(3-bromo-5-methoxy-1-benzofuran-2-yl)(cyclohexyl)methyl]amino}phenyl)carbonyl]amino}propanoic acid]"
21,66,"COc1ccc2oc(C(Nc3ccc(C(=O)N(C)CCC(=O)O)cc3)C3CCCCC3)c(Br)c2c1 (stereo not drawn) [Example A103, 3-{[(4-{[(3-bromo-5-methoxy-1-benzofuran-2-yl)(cyclohexyl)methyl]amino}phenyl)carbonyl](methyl)amino}-propanoic acid]"
22,68,"CCC(CC)C(Nc1ccc(C(=O)NCCC(=O)O)cc1)c1oc2ccc(OC)cc2c1C (stereo not drawn) [Example A104, 3-{[(4-{[2-ethyl-1-(5-methoxy-3-methyl-1-benzofuran-2-yl)butyl]amino}phenyl)carbonyl]amino}propanoic acid]"
23,67,"CCC(CC)C(Nc1ccc(C(=O)N(C)CCC(=O)O)cc1)c1oc2ccc(OC)cc2c1C (stereo not drawn) [Example A105, 3-{[(4-{[2-ethyl-1-(5-methoxy-3-methyl-1-benzofuran-2-yl)butyl]amino}phenyl)carbonyl](methyl)amino}propanoic acid]"
24,69,"CCCCCCC(Nc1ccc(C(=O)NCCC(=O)O)cc1)c1cc2cc(Cl)ccc2n1-c1cccc(C(F)(F)F)c1 (stereo not drawn) [Example A106, 3-[({4-[(1-{5-chloro-1-[3-(trifluoromethyl)phenyl]-1H-indol-2-yl}heptyl)amino]phenyl}carbonyl)amino]propanoic acid]"
25,74,"CCCCCCC(Nc1ccc(C(=O)N(C)CCC(=O)O)cc1)c1cc2cc(Cl)ccc2n1-c1cccc(C(F)(F)F)c1 (stereo not drawn) [Example A107, 3-[({4-[(1-{5-chloro-1-[3-(trifluoromethyl)phenyl]-1H-indol-2-yl}heptyl)amino]phenyl}carbonyl)(methyl)amino]propanoic acid]"
26,58,"COc1ccc2oc(C(Nc3ccc(C(=O)NCCC(=O)O)cc3)C3CCCCC3)c(C#N)c2c1 (stereo not drawn) [Example A108, 3-{[(4-{[(3-cyano-5-methoxy-1-benzofuran-2-yl)(cyclohexyl)methyl]amino}phenyl)carbonyl]amino}propanoic acid]"
27,58,"COc1ccc2oc(C(Nc3ccc(C(=O)N(C)CCC(=O)O)cc3)C3CCCCC3)c(C#N)c2c1 (stereo not drawn) [Example A109, 3-{[(4-{[(3-cyano-5-methoxy-1-benzofuran-2-yl)(cyclohexyl)methyl]amino}phenyl)carbonyl](methyl)amino}-propanoic acid]"
28,70,"Cc1c(C(Nc2ccc(C(=O)N(C)CCC(=O)O)cc2)C2CCCCC2)oc2ccc(NS(C)(=O)=O)cc12 (stereo not drawn) [Example A111, 3-[({4-[(cyclohexyl{3-methyl-5-[(methylsulfonyl)amino]-1-benzofuran-2-yl}methyl)amino]phenyl}carbonyl)(methyl)amino]propanoic acid]"
29,85,"Cc1c(C(Nc2ccc(C(=O)NCCC(=O)O)cc2)C2CCCCC2)oc2cccnc12 (stereo not drawn) [Example A112, 3-{[(4-{[cyclohexyl(3-methylfuro[3,2-b]pyridin-2-yl)methyl]amino}phenyl)carbonyl]amino}propanoic acid]"
